Holding throughout (type): in vivo
One data set relates to corn. The data set is described as follows: Test Example 5: effect on crop by foliage application, plastic box (symbol c). The following applies: 320 g/ha, 3 weeks after application. The method, boiled down:
(§1)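 Seeds were sown in spots in sterilized diluvial soil held in a plastic box 21 cm × 13 cm × 7 cm deep, covered with about 1.5 cm of soil, and grown in a greenhouse at 25° C. to 30° C.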

For a further data set, the system named is beet. The data set is described as follows: Test Example 5: effect on crop by foliage application, plastic box (symbol f). The following applies: 320 g/ha, 3 weeks after application. The method, boiled down:
as §1

Another data set relates to Leptochloa chinensis. Nature of the data set: Test Example 3: herbicidal effect by foliage application, Wagner pot (symbol D). The following applies: application herbicide amount 320 g/ha; for D (Leptochloa chinensis) herbicidal effect grade: Table 24. In outline: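 Weeds and rice were sown in alluvial soil under 0.1–0.5 cm of standing water and grown for 14 days in a 25–30 °C greenhouse. An emulsion of the compound, diluted in water to a set dose, was sprayed evenly onto the foliage. Effect was scored against fixed criteria 3 weeks after treatment.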

The next data set deals with rapeseed. The data set is described as follows: Test Example 4: effect on crop by soil treatment (symbol g). The method, boiled down:
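Diluvial soil (sterilized) in boxes; seeds placed spot-wise alongside weed species; ~1.5 cm covering soil. Greenhouse, 25–30° C.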

A further data set relates to wheat. The data set is described as follows: Test Example 5: effect on crop by foliage application, plastic box (symbol e). The following applies: 320 g/ha, 3 weeks after application. The method, boiled down: as §1
The test system of another data set is Galium spurium. Nature of the data set: Test Example 5: herbicidal effect by foliage application, plastic box (symbol Q). The following applies: 320 g/ha, 3 weeks after application. In outline: (§2)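 Emulsion formulation, diluted with water to the intended rate, was applied uniformly to leaves by small sprayer. Recipients were 14-day greenhouse-grown seedlings (25° C. to 30° C.). Assessment followed at 3 weeks.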

The test system of data set [1] is directly sowed rice plant. The data set is described as follows: Test Example 3: effect on crop by foliage application, Wagner pot (symbol b). The following applies: application herbicide amount 320 g/ha; for b (directly sowed rice plant) effect on crop grade: Table 24. The method, boiled down:
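Steps: fill a 1/10000-are Wagner pot with alluvial soil; add water and mix to submerge at 0.1–0.5 cm depth; sow rice plus Echinochloa crus-galli var. crus-galli, Leptochloa chinensis and Cyperus difformis; grow in a 25–30 °C greenhouse.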

A further data set concerns Monochoria vaginalis. The data set is described as follows: Test Example 1: herbicidal activity, application before weed generation in submerged conditions (symbol C). The following applies: application herbicide amount 320 g/ha. The method, boiled down:
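Mixed weed seeds sown in alluvial soil under 4 cm of water, with rice seedlings at the 2.5-leaf stage added. Same-day treatment: emulsion diluted to a set herbicide amount onto the water. Three weeks at 25–30 °C, then graded on a six-step scale.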

The test system of the next data set is Abutilon theophrasti. The data set is described as follows: Test Example 4: herbicidal effect by soil treatment (symbol M). The method, boiled down:
(§3)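 Seeds were sown in sterilized diluvial soil, covered with about 1.5 cm of soil, and the soil surface was sprayed with a water-diluted emulsion of the compound at a predetermined rate. Plants grew in a greenhouse at 25° C. to 30° C.; effects were scored visually 3 weeks after application.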

The test system of a further data set is Apera spica-venti. Nature of the data set: Test Example 5: herbicidal effect by foliage application, plastic box (symbol L). The following applies: 320 g/ha, 3 weeks after application. The method, boiled down:
as §2

Another data set has as its system transplanted rice plant. The data set is described as follows: Test Example 1: effect on crop, application before weed generation in submerged conditions (symbol a). The following applies: application herbicide amount 320 g/ha. The method, boiled down:
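Rice at 2.5 leaf stage transplanted into submerged soil (4 cm depth) sown with three weed species; herbicide applied before weed emergence.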

In a further data set the test system is Amaranthus retroflexus. Nature of the data set: Test Example 4: herbicidal effect by soil treatment (symbol N). In outline: as §3
The subject of a further data set is Digitaria ciliaris. Nature of the data set: Test Example 4: herbicidal effect by soil treatment (symbol F). The method, boiled down: as §3
Setting [2] is: application herbicide amount 320 g/ha.

`CCCON=C(C)CC1CC(O)=C(c2c(C)cc(C)cc2C)C1=O` (centres unmarked) [1-123]: the “c: corn, effect on crop (criteria 0-5)” value in the data set on corn is 5 (Herbicidal ratio of 90% or more (almost completely withered)). Moreover, the “f: beet, effect on crop (criteria 0-5)” value in the data set with beet was 0 (Herbicidal ratio of 5% or lower (almost no effect)). In the data set on Leptochloa chinensis, the “herbicidal effect on D (Leptochloa chinensis), grade 0-5” value is on record as 5 (Herbicidal ratio of 90% or more (almost completely withered)). Besides, the “g: rapeseed, effect grade on crop” value with rapeseed (320 g/ha) was 3 (Herbicidal ratio of 40% or higher and lower than 70%). In addition, the “e: wheat, effect on crop (criteria 0-5)” value in the data set with wheat is 5 (Herbicidal ratio of 90% or more (almost completely withered)). In addition, the “Q: Galium spurium, herbicidal effect (criteria 0-5)” value in the data set with Galium spurium is given as 0 (Herbicidal ratio of 5% or lower (almost no effect)). Further, the “effect on crop b (directly sowed rice plant), grade 0-5” value in data set [1] was 5 (Herbicidal ratio of 90% or more (almost completely withered)). Besides, the “Herbicidal effect grade, C: Monochoria vaginalis” value with Monochoria vaginalis was 3 (Herbicidal ratio of 40% or higher and lower than 70%). For the same molecule, the “M: Abutilon theophrasti, herbicidal effect grade” value in the data set with Abutilon theophrasti (320 g/ha) is 3 (Herbicidal ratio of 40% or higher and lower than 70%). The “L: Apera spica-venti, herbicidal effect (criteria 0-5)” value in the data set on Apera spica-venti was 5 (Herbicidal ratio of 90% or more (almost completely withered)). Also, in the data set on transplanted rice plant, the “Effect grade on crop, a: transplanted rice plant” value is recorded as 5 (Herbicidal ratio of 90% or more (almost completely withered)). Besides, in the data set on Amaranthus retroflexus (320 g/ha), the “N: Amaranthus retroflexus, herbicidal effect grade” value is 0 (Herbicidal ratio of 5% or lower (almost no effect)). Also, the “F: Digitaria ciliaris, herbicidal effect grade” value with Digitaria ciliaris (320 g/ha) is given as 5 (Herbicidal ratio of 90% or more (almost completely withered)).

Take `CON=C(C)CC1(C)CC(O)=C(c2c(C)cc(C)cc2C)C1=O` (mixture of isomers) [11-002]: the “c: corn, effect on crop grade” value in the data set with corn is 2 (Herbicidal ratio of 20% or higher and lower than 40%). For the same molecule, the “f: beet, effect on crop grade” value with beet is 0 (Herbicidal ratio of 5% or lower (almost no effect)). Also, in the data set with Leptochloa chinensis, the “D (Leptochloa chinensis) herbicidal effect grade” value was 5 (Herbicidal ratio of 90% or more (almost completely withered)). In the data set on rapeseed (setting [2]), the “Effect on crop grade, g: rapeseed” value is 2 (Herbicidal ratio of 20% or higher and lower than 40%). In addition, in the data set with wheat, the “e: wheat, effect on crop grade” value is 2 (Herbicidal ratio of 20% or higher and lower than 40%). Further, the “Q: Galium spurium, herbicidal effect grade” value with Galium spurium is recorded as 0 (Herbicidal ratio of 5% or lower (almost no effect)). In addition, in data set [1], the “b (directly sowed rice plant) effect on crop grade” value was 5 (Herbicidal ratio of 90% or more (almost completely withered)). Further, the “C (Monochoria vaginalis) herbicidal effect grade” value in the data set on Monochoria vaginalis is 0 (Herbicidal ratio of 5% or lower (almost no effect)). Besides, the “Herbicidal effect grade, M: Abutilon theophrasti” value (shortened to “Herbicidal effect grade, M”) with Abutilon theophrasti (setting [2]) is given as 0 (Herbicidal ratio of 5% or lower (almost no effect)). In addition, the “L: Apera spica-venti, herbicidal effect grade” value in the data set on Apera spica-venti is on record as 5 (Herbicidal ratio of 90% or more (almost completely withered)). Also, the “a (transplanted rice plant) effect on crop grade” value in the data set with transplanted rice plant was 2 (Herbicidal ratio of 20% or higher and lower than 40%). The “Herbicidal effect grade, N: Amaranthus retroflexus” value (“Herbicidal effect grade, N” below) in the data set on Amaranthus retroflexus (setting [2]) is listed as 0 (Herbicidal ratio of 5% or lower (almost no effect)). Further, the “Herbicidal effect grade, F: Digitaria ciliaris” value (from here on “Herbicidal effect grade, F”) in the data set on Digitaria ciliaris (setting [2]) is recorded as 0 (Herbicidal ratio of 5% or lower (almost no effect)).

For `CON=C(CC1CC(O)=C(c2c(C)cc(-n3cc(Cl)cn3)cc2C)C1=O)C1CC1` (centres unmarked) [9-007], the “c: corn, effect on crop grade” value in the data set on corn is reported as 5 (Herbicidal ratio of 90% or more (almost completely withered)). The “f: beet, effect on crop grade” value in the data set with beet is on record as 0 (Herbicidal ratio of 5% or lower (almost no effect)). The “D (Leptochloa chinensis) herbicidal effect grade” value with Leptochloa chinensis is given as 5 (Herbicidal ratio of 90% or more (almost completely withered)). The “Effect on crop grade, g: rapeseed” value in the data set on rapeseed (setting [2]) was 0 (Herbicidal ratio of 5% or lower (almost no effect)). For the same molecule, the “e: wheat, effect on crop grade” value with wheat was 4 (Herbicidal ratio of 70% or higher and lower than 90%). Besides, the “Q: Galium spurium, herbicidal effect grade” value in the data set with Galium spurium was 1 (Herbicidal ratio of 5% or higher and lower than 20%). Further, in [1], the “b (directly sowed rice plant) effect on crop grade” value was 5 (Herbicidal ratio of 90% or more (almost completely withered)). Besides, in the data set on Monochoria vaginalis, the “C (Monochoria vaginalis) herbicidal effect grade” value is given as 0 (Herbicidal ratio of 5% or lower (almost no effect)). Further, the “Herbicidal effect grade, M” value with Abutilon theophrasti (setting [2]) is recorded as 0 (Herbicidal ratio of 5% or lower (almost no effect)). The “L: Apera spica-venti, herbicidal effect grade” value in the data set with Apera spica-venti is given as 5 (Herbicidal ratio of 90% or more (almost completely withered)). The “a (transplanted rice plant) effect on crop grade” value with transplanted rice plant was 5 (Herbicidal ratio of 90% or more (almost completely withered)). Moreover, the “Herbicidal effect grade, N” value in the data set with Amaranthus retroflexus (setting [2]) is 0 (Herbicidal ratio of 5% or lower (almost no effect)). In the data set on Digitaria ciliaris (setting [2]), the “Herbicidal effect grade, F” value is recorded as 5 (Herbicidal ratio of 90% or more (almost completely withered)).

For `COc1cc(Br)cc(C)c1C1=C(O)CC(CC(=O)C2CC2)C1=O` (racemic) [14-001], the “c: corn, effect on crop grade” value with corn is recorded as 5 (Herbicidal ratio of 90% or more (almost completely withered)). In addition, in the data set on beet, the “f: beet, effect on crop grade” value is 0 (Herbicidal ratio of 5% or lower (almost no effect)). In the data set with Leptochloa chinensis, the “D (Leptochloa chinensis) herbicidal effect grade” value is listed as 5 (Herbicidal ratio of 90% or more (almost completely withered)). Further, the “g: rapeseed, effect on crop grade” value in the data set with rapeseed (setting [2]) was 0 (Herbicidal ratio of 5% or lower (almost no effect)). Moreover, in the data set on wheat, the “e: wheat, effect on crop grade” value is 4 (Herbicidal ratio of 70% or higher and lower than 90%). Also, the “Q: Galium spurium, herbicidal effect grade” value with Galium spurium was 0 (Herbicidal ratio of 5% or lower (almost no effect)). In addition, in data set [1], the “b (directly sowed rice plant) effect on crop grade” value is listed as 5 (Herbicidal ratio of 90% or more (almost completely withered)). For the same molecule, in the data set on Monochoria vaginalis, the “C (Monochoria vaginalis) herbicidal effect grade” value was 3 (Herbicidal ratio of 40% or higher and lower than 70%). Besides, in the data set on Abutilon theophrasti (setting [2]), the “M: Abutilon theophrasti, herbicidal effect grade” value is reported as 0 (Herbicidal ratio of 5% or lower (almost no effect)). Also, the “L: Apera spica-venti, herbicidal effect grade” value in the data set on Apera spica-venti is reported as 5 (Herbicidal ratio of 90% or more (almost completely withered)). Further, the “a (transplanted rice plant) effect on crop grade” value in the data set on transplanted rice plant is recorded as 5 (Herbicidal ratio of 90% or more (almost completely withered)). For the same molecule, the “N: Amaranthus retroflexus, herbicidal effect grade” value in the data set on Amaranthus retroflexus (setting [2]) was 0 (Herbicidal ratio of 5% or lower (almost no effect)). Also, in the data set on Digitaria ciliaris (setting [2]), the “F: Digitaria ciliaris, herbicidal effect grade” value was 5 (Herbicidal ratio of 90% or more (almost completely withered)).

Take `CC#Cc1cc(C)c(C2=C(O)CC(CC(=NOC)C3CC3)C2=O)c(C)c1` (centres unmarked) [9-008]: the “c: corn, effect on crop grade” value in the data set with corn is reported as 5 (Herbicidal ratio of 90% or more (almost completely withered)). Also, the “f: beet, effect on crop grade” value in the data set on beet was 0 (Herbicidal ratio of 5% or lower (almost no effect)). Besides, in the data set on Leptochloa chinensis, the “D (Leptochloa chinensis) herbicidal effect grade” value was 5 (Herbicidal ratio of 90% or more (almost completely withered)). Further, in the data set with rapeseed (setting [2]), the “Effect on crop grade, g: rapeseed” value was 4 (Herbicidal ratio of 70% or higher and lower than 90%). Besides, in the data set with wheat, the “e: wheat, effect on crop grade” value is 5 (Herbicidal ratio of 90% or more (almost completely withered)). Also, the “Q: Galium spurium, herbicidal effect grade” value in the data set on Galium spurium is 2 (Herbicidal ratio of 20% or higher and lower than 40%). Moreover, in data set [1], the “b (directly sowed rice plant) effect on crop grade” value is on record as 5 (Herbicidal ratio of 90% or more (almost completely withered)). In the data set with Monochoria vaginalis, the “C (Monochoria vaginalis) herbicidal effect grade” value was 4 (Herbicidal ratio of 70% or higher and lower than 90%). Also, in the data set on Abutilon theophrasti (setting [2]), the “Herbicidal effect grade, M” value was 4 (Herbicidal ratio of 70% or higher and lower than 90%). The “L: Apera spica-venti, herbicidal effect grade” value with Apera spica-venti is reported as 5 (Herbicidal ratio of 90% or more (almost completely withered)). Further, in the data set on transplanted rice plant, the “a (transplanted rice plant) effect on crop grade” value was 5 (Herbicidal ratio of 90% or more (almost completely withered)). Further, the “Herbicidal effect grade, N” value in the data set on Amaranthus retroflexus (setting [2]) was 4 (Herbicidal ratio of 70% or higher and lower than 90%). In addition, the “Herbicidal effect grade, F” value in the data set on Digitaria ciliaris (setting [2]) is 5 (Herbicidal ratio of 90% or more (almost completely withered)).

For the origin of these results see patent publication US11000033B2, “Ketone or oxime compound, and herbicide” (NISSAN CHEMICAL CORPORATION, priority 2014, dated 2021).
